What was measured:
[1] = tested on: Enterococcus faecalis; assay: Antibacterial activity against Enterococcus faecalis OG1RF incubated for 72 hrs; format: functional
[2] = tested on: Staphylococcus aureus; assay: Antibacterial activity against community acquired methicillin-resistant Staphylococcus aureus USA300-0114 incubated for 72 hrs; format: functional; details: USA300-0114, 72 h
[3] = tested on: Escherichia coli; assay: Antibacterial activity against Escherichia coli MC4100 incubated for 72 hrs; format: functional; details: str. K-12 substr. MC4100, 72 h
[4] = tested on: Staphylococcus aureus; assay: Antibacterial activity against methicillin-susceptible Staphylococcus aureus SH1000 incubated for 72 hrs; format: functional; details: SH1000, 72 h
[5] = tested on: Pseudomonas aeruginosa; assay: Antibacterial activity against Pseudomonas aeruginosa PAO1 incubated for 72 hrs; format: functional; details: PAO1, 72 h
[6] = tested on: Staphylococcus aureus; assay: Antibacterial activity against hospital-acquired methicillin-resistant Staphylococcus aureus ATCC 33592 incubated for 72 hrs; format: functional; details: ATCC 33592, 72 h
[7] = Stability of the compound in pure water by LCMS method; format: physicochemical

| SMILES | MIC [1] [µM] | MIC [2] [µM] | MIC [3] [µM] | MIC [4] [µM] | MIC [5] [µM] | MIC [6] [µM] | Stability [7] |
| --- | --- | --- | --- | --- | --- | --- | --- |
| CCCCCCCCCCCCOC(=O)C[N+](C)(C)CC[N+](C)(C)CC(=O)OCCCCCCCCCCCC.[Br-].[Br-] | 32 | 16 | 63 | 16 | 125 | 32 | Stable |
| CCCCCCCCCCCCOC(=O)C[N+](C)(C)CCN1CC[N+](C)(CC(=O)OCCCCCCCCCCCC)CC1.[Br-].[Br-] | 32 | 8 | 16 | 8 | 32 | 8 | Stable |
| CCCCCCCCCCCCOC(=O)C[N+](C)(C)Cc1ccccc1.[Br-] | 4 | 2 | 16 | 2 | 63 | 2 | Stable |
| CCCCCCCOC(=O)C[N+](C)(C)CCC[N+](C)(CCC[N+](C)(C)CC(=O)OCCCCCCC)CC(=O)OCCCCCCC.[Br-].[Br-].[Br-] | 32 | 16 | 125 | 32 | 125 | 32 | Stable |
| CCCCCCOC(=O)C[N+](C)(C)CCCN(CCC[N+](C)(C)CC(=O)OCCCCCC)CCC[N+](C)(C)CC(=O)OCCCCCC.[Br-].[Br-].[Br-] | 250 | 63 | 250 | 63 | > 250 | 250 | Stable |
| CCCCCCCCCOC(=O)C[N+](C)(C)CCC[N+](C)(CCC[N+](C)(C)CC(=O)OCCCCCCCCC)CC(=O)OCCCCCCCCC.[Br-].[Br-].[Br-] | 16 | 8 | 8 | 4 | 32 | 8 | Stable |
| CCCCCCCCCCOC(=O)C[N+](C)(C)CC[N+](C)(C)CC(=O)OCCCCCCCCCC.[Br-].[Br-] | 16 | 8 | 8 | 4 | 32 | 8 | Stable |
| CCCCCCCCCOC(=O)C[N+](C)(C)CCCN(CCC[N+](C)(C)CC(=O)OCCCCCCCCC)CCC[N+](C)(C)CC(=O)OCCCCCCCCC.[Br-].[Br-].[Br-] | 8 | 4 | 4 | 2 | 16 | 4 | Stable |
| CCCCCCCOC(=O)C[N+](C)(C)CC[N+](C)(C)CC(=O)OCCCCCCC.[Br-].[Br-] | > 250 | 125 | > 250 | 250 | > 250 | 250 | Stable |
| CCCCCCOC(=O)C[N+](C)(C)Cc1ccccc1.[Br-] | > 250 | > 250 | > 250 | > 250 | > 250 | > 250 | Stable |
| CCCCCCOC(=O)C[N+](C)(C)CCN1CC[N+](C)(CC(=O)OCCCCCC)CC1.[Br-].[Br-] | > 250 | > 250 | > 250 | > 250 | > 250 | > 250 | Stable |
| CCCCCCCCCCCCCCOC(=O)C[N+](C)(C)CCN1CC[N+](C)(CC(=O)OCCCCCCCCCCCCCC)CC1.[Br-].[Br-] | > 250 | 250 | > 250 | > 250 | > 250 | > 250 | Stable |
| CCCCCCCCOC(=O)C[N+](C)(C)CCN1CC[N+](C)(CC(=O)OCCCCCCCC)CC1.[Br-].[Br-] | 63 | 32 | 250 | > 250 | > 250 | 63 | Stable |
| CCCCCCCOC(=O)C[N+](C)(C)CCCN(CCC[N+](C)(C)CC(=O)OCCCCCCC)CCC[N+](C)(C)CC(=O)OCCCCCCC.[Br-].[Br-].[Br-] | 32 | 8 | 63 | 16 | > 250 | 32 | Stable |
| CCCCCCCOC(=O)C[N+](C)(C)Cc1ccccc1.[Br-] | > 250 | > 250 | > 250 | > 250 | > 250 | > 250 | Stable |
| CCCCCCCCCCCCOC(=O)C[N+](C)(C)CCCN(CCC[N+](C)(C)CC(=O)OCCCCCCCCCCCC)CCC[N+](C)(C)CC(=O)OCCCCCCCCCCCC.[Br-].[Br-].[Br-] | 8 | 8 | 8 | 4 | > 250 | 8 | Stable |
| CCCCCCCCCCNC(=O)C[N+](C)(C)CC[N+](C)(C)CC(=O)NCCCCCCCCCC.[Br-].[Br-] | 1 | 0.5 | 1 | 1 | 2 | 1 | Stable |

| SMILES | MIC [1] [µM] | MIC [2] [µM] | MIC [3] [µM] | MIC [4] [µM] | MIC [5] [µM] | MIC [6] [µM] | Stability [7] |
| --- | --- | --- | --- | --- | --- | --- | --- |
| CCCCCCOC(=O)C[N+](C)(C)CC[N+](C)(C)CC(=O)OCCCCCC.[Br-].[Br-] | > 250 | 250 | > 250 | > 250 | > 250 | > 250 | Stable |
| CCCCCCCCCCOC(=O)C[N+](C)(C)CCC[N+](C)(CCC[N+](C)(C)CC(=O)OCCCCCCCCCC)CC(=O)OCCCCCCCCCC.[Br-].[Br-].[Br-] | 8 | 4 | 8 | 4 | 16 | 4 | Stable |
| CCCCCCOC(=O)C[N+](C)(C)CCC[N+](C)(CCC[N+](C)(C)CC(=O)OCCCCCC)CC(=O)OCCCCCC.[Br-].[Br-].[Br-] | 250 | 125 | > 250 | 250 | > 250 | 250 | Stable |
| CCCCCCCCOC(=O)C[N+](C)(C)Cc1ccccc1.[Br-] | 250 | 250 | 250 | 125 | > 250 | 125 | Stable |
| CCCCCCCCCCOC(=O)C[N+](C)(C)Cc1ccccc1.[Br-] | 32 | 16 | 63 | 32 | > 250 | 32 | Stable |
| CCCCCCCOC(=O)C[N+](C)(C)CCN1CC[N+](C)(CC(=O)OCCCCCCC)CC1.[Br-].[Br-] | > 250 | 250 | > 250 | > 250 | > 250 | > 250 | Stable |
| CCCCCCCCCOC(=O)C[N+](C)(C)CCN1CC[N+](C)(CC(=O)OCCCCCCCCC)CC1.[Br-].[Br-] | 8 | 4 | 16 | 4 | 125 | 4 | Stable |
| CCCCCCCCCCCCCCOC(=O)C[N+](C)(C)CC[N+](C)(C)CC(=O)OCCCCCCCCCCCCCC.[Br-].[Br-] | 32 | 16 | 250 | 16 | > 250 | 32 | Stable |
| CCCCCCCCCOC(=O)C[N+](C)(C)CC[N+](C)(C)CC(=O)OCCCCCCCCC.[Br-].[Br-] | 16 | 4 | 16 | 2 | 32 | 8 | Stable |
| CCCCCCCCCCNC(=O)C[N+](C)(C)CCC[N+](C)(CCC[N+](C)(C)CC(=O)NCCCCCCCCCC)CC(=O)NCCCCCCCCCC.[Br-].[Br-].[Br-] | 2 | 1 | 2 | 1 | 63 | 2 | Stable |
| CCCCCCCCOC(=O)C[N+](C)(C)CCCN(CCC[N+](C)(C)CC(=O)OCCCCCCCC)CCC[N+](C)(C)CC(=O)OCCCCCCCC.[Br-].[Br-].[Br-] | 8 | 4 | 8 | 2 | 63 | 4 | Stable |
| CCCCCCCCCOC(=O)C[N+](C)(C)Cc1ccccc1.[Br-] | 125 | 32 | 125 | 32 | > 250 | 63 | Stable |
| CCCCCCCCCCCCOC(=O)C[N+](C)(C)CCC[N+](C)(CCC[N+](C)(C)CC(=O)OCCCCCCCCCCCC)CC(=O)OCCCCCCCCCCCC.[Br-].[Br-].[Br-] | 8 | 8 | 8 | 4 | 16 | 8 | Stable |
| CCCCCCCCOC(=O)C[N+](C)(C)CCC[N+](C)(CCC[N+](C)(C)CC(=O)OCCCCCCCC)CC(=O)OCCCCCCCC.[Br-].[Br-].[Br-] | 16 | 8 | 16 | 8 | 32 | 8 | Stable |
| CCCCCCCCCCCCCCOC(=O)C[N+](C)(C)Cc1ccccc1.[Br-] | 4 | 2 | 8 | 1 | 250 | 1 | Stable |
| CCCCCCCCCCNC(=O)C[N+](C)(C)Cc1ccccc1.[Br-] | 16 | 8 | 32 | 8 | 125 | 8 | Stable |
| CCCCCCCCOC(=O)C[N+](C)(C)CC[N+](C)(C)CC(=O)OCCCCCCCC.[Br-].[Br-] | 63 | 16 | 63 | 32 | 125 | 32 | Stable |

— ChEMBL document CHEMBL4038298, “Ester- and amide-containing multiQACs: Exploring multicationic soft antimicrobial agents” (Bioorg Med Chem Lett, 2017)
